According to US20070142389A1, “PIPERIDINE DERIVATIVES” (PFIZER INC., priority 2005, published 2007):

Legend:
[1] = biological target: T1, human norepinephrine transporter (Homo sapiens, UniProt P23975); experiment: hNET Receptor Binding ([125I]-RTI-55 displacement, HEK-293 membranes); conditions: hNET, HEK-293 cell membranes, 50 pM [125I]-RTI-55, Ki from IC50 by Cheng-Prusoff; read-out: NET Ki
T1 construct: expressed in transfected cells; host or cells: HEK-293
Description: (§1) Cell pastes of HEK-293 cells transfected with a human norepinephrine transporter cDNA were prepared. The cell pastes were resuspended in 400 to 700 mL of Krebs-HEPES assay buffer (25 mM HEPES, 122 mM NaCl, 3 mM KCl, 1.2 mM MgSO4, 1.3 mM CaCl2, and 11 mM glucose, pH 7.4) with a Polytron homogenizer at setting 7 for 30 seconds. Aliquots of membranes (5 mg/mL protein) were stored in liquid nitrogen until used.
The binding assay was set up in Beckman deep-well polypropylene plates with a total volume of 250 μL containing: compound of one of the Examples (10^−5M to 10^−12M), cell membranes, and 50 pM [^125I]-RTI-55 (Perkin Elmer, NEX-272; specific activity 2200 Ci/mmol). The reaction was incubated by gentle agitation for 90 minutes at room temperature and was terminated by filtration through Whatman GF/C filter plates using a Brandel 96-well plate harvester. Scintillation fluid (100 μL) was added to each well, and bound [^125I]-RTI-55 was determined using a Wallac Trilux Beta Plate Counter. Test compounds were run in duplicate, and specific binding was defined as the difference between binding in the presence and absence of 10 μM desipramine.
(§2) Excel and GraphPad Prism software were used for data calculation and analysis. IC50 values were converted to Ki values using the Cheng-Prusoff equation.

[2] = biological target: T2, human serotonin transporter (Homo sapiens, UniProt P31645); experiment: hSERT Receptor Binding ([125I]-RTI-55 displacement, HEK-293 membranes); conditions: hSERT, HEK-293 cell membranes, 50 pM [125I]-RTI-55, Ki from IC50 by Cheng-Prusoff; read-out: SERT Ki
T2 construct: expressed in transfected cells; host or cells: HEK-293
T2 sequence (P31645 whole entry): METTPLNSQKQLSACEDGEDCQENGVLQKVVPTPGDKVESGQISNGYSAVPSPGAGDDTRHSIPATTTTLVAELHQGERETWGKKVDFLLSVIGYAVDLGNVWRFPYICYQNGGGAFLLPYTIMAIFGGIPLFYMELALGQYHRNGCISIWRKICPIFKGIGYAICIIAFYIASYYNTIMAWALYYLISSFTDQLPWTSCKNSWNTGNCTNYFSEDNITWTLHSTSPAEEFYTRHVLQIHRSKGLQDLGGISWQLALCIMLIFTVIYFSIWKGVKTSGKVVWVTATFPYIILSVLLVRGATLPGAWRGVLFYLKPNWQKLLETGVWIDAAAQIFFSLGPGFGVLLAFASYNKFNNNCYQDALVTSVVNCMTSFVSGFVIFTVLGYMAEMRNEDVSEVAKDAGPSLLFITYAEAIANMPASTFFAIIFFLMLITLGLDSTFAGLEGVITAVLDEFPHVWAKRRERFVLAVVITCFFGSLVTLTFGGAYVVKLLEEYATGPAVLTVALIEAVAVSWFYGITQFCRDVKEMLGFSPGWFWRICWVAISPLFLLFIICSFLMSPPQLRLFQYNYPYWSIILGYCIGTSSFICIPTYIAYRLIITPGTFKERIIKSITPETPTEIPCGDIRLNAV
Description: as §1, with “serotonin” for “norepinephrine”, “Setting” for “setting”, “(about 2.5” for “(5”
Assays were set up in FlashPlates pre-coated with 0.1 % PEI in a total volume of 250 μL containing: compound of one of the Examples (10^−5M to 10^−12M), cell membanes, and 50 pM [^125l]-RTI-55 (Perkin Elmer, NEX-272; specific activity 2200 Ci/mmol). The reaction was incubated and gently agitated for 90 minutes at room temperature, and terminated by removal of assay volume. Plates were covered, and bound [^125I]-RTI-55 was determined using a Wallac Trilux Beta Plate Counter. Test compounds were run in duplicate, and specific binding was defined as the difference between binding in the presence and absence of 10 μM citalopram.
as §2

[3] = test system: capsaicin-induced mechanical allodynia in a rat; experiment: rat model of capsaicin-induced mechanical allodynia; format: in vivo; conditions: sc, male Sprague-Dawley rats, 10 mg/kg subcutaneously, PWT 1 hour after single dose, mean +/- SEM of eight animals, normalized for vehicle, read-out: % Inhibition of Allodynia
Description: Compounds of the present invention may be assayed for their ability to alleviate capsaicin-induced mechanical allodynia in a rat (e.g., Sluka (2002) J of Neuroscience, 22(13): 5687-5693). For example, a rat model of capsaicin-induced mechanical allodynia was carried out as follows:
On day 0, male Sprague-Dawley rats (about 150 g each) in the dark cycle were placed in suspended wire-bottom cages and allowed to acclimate for 0.5 hour in a darkened, quiet room. The day 0 paw withdrawal threshold (PWT) was determined on the left hind paw by Von Frey hair assessment using the Dixon up and down method. After assessment, the plantar muscle of the right hind paw was injected with 100 μL capsaicin (0.25% (w/v) in 10% ethanol, 10% Tween 80, in sterile saline). On day 6 the PWT of the left hind paw (contralateral from injection site) was determined for each animal. Animals from the day 6 prereads with PWT ≦11.7 g were considered allodynic responders and were regrouped so that each cage had similar mean PWT values. On day 7, responders were dosed subcutaneously with 10 mg compound/kg body weight, or with vehicle alone. The vehicle was phosphate buffered saline containing 2% Cremophor® EL (BASF Corp., Florham Park, N.J.). The contralateral PWT values were determined at 1 hour after the single dose, with the investigator blinded to the dosing scheme.
For each animal, the day 6 PWT value was subtracted from the 1 hour PWT value to give a delta PWT value that represents the change in PWT due to the 1 hour drug treatment. In addition, the day 6 PWT was subtracted from the day 0 PWT to give the baseline window of allodynia present in each animal. To determine % inhibition of allodynia of each animal normalized for vehicle controls, the following formula was used: % Inhibition of Allodynia =100× [(Delta PWT(drug)—mean Delta PWT(vehicle))/(Baseline—mean Delta PWT(vehicle))].
The mean percent inhibition of allodynia values (for eight animals assayed for each compound) +/− the standard error of the mean (SEM) are shown in Table 2.

T1 sequence (P23975 whole entry): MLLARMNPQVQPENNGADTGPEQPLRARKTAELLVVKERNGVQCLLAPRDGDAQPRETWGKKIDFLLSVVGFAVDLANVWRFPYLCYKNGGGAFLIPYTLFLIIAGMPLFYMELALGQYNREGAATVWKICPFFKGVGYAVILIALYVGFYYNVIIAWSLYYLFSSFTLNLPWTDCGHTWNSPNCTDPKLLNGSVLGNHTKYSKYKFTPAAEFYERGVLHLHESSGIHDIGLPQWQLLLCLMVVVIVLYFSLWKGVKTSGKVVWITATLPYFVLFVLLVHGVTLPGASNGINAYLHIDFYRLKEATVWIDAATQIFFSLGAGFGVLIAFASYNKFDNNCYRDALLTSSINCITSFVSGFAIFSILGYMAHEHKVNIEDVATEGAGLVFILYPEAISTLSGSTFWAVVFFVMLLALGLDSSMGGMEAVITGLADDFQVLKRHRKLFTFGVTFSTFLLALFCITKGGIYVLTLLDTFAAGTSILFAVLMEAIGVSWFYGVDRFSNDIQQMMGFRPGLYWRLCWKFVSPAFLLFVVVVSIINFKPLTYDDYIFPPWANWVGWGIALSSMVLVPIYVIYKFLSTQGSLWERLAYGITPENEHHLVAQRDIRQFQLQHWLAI

Compound	Ki [1] [µM]	Ki [2] [µM]	inhibition in vivo at 10 mg/kg [3] [%]
CCOc1ncccc1OC[C@H]1CNCC[C@@H]1c1ccccc1 (single isomer, unassigned) [Example 1]	0.00383	0.0243	82.3
CCOc1ncccc1OC[C@H]1CNCC[C@@H]1c1ccccc1 [Example 2, (3R,4S)-2-Ethoxy-3-(4-phenyl-piperidin-3-ylmethoxy)-pyridine]	3.29	0.00651	1.4
COc1ncccc1OC[C@@H]1CNCC[C@H]1c1ccccc1 [Example 7, (3S,4R)-2-Methoxy-3-(4-phenyl-piperidin-3-ylmethoxy)-pyridine]	0.00334	0.0177	67.3
CCCOc1ncccc1OC[C@@H]1CNCC[C@H]1c1ccccc1 [Example 9, (3S,4R)-3-(4-Phenyl-piperidin-3-ylmethoxy)-2-propoxy-pyridine]	0.00304	0.0175	29.5
COCCOc1ncccc1OC[C@@H]1CNCC[C@H]1c1ccccc1 [Example 11, (3S,4R)-2-(2-Methoxy-ethoxy)-3-(4-phenyl-piperidin-3-ylmethoxy)-pyridine]	0.00457	0.188	77.3
CC(C)Oc1ncccc1OC[C@@H]1CNCC[C@H]1c1ccccc1 [Example 12, (3S,4R)-2-lsopropoxy-3-(4-phenyl-piperidin-3-ylmethoxy)-pyridine]	0.00418	0.0406	66.4
COCCCOc1ncccc1OC[C@@H]1CNCC[C@H]1c1ccccc1 [Example 14, (3S,4R)-2-(3-Methoxy-propoxy)-3-(4-phenyl-piperidin-3-ylmethoxy)-pyridine]	0.0121	0.164	22.7
CCCc1ncccc1OC[C@@H]1CNCC[C@H]1c1ccccc1 [Example 17, (3S,4R)-3-(4-Phenyl-piperidin-3-ylmethoxy)-2-propyl-pyridine]	0.0132	0.0219	2.6
N#Cc1cccc(OC[C@@H]2CNCC[C@H]2c2ccccc2)c1 [Example 25, (3S,4R)-3-(4-Phenyl-piperidin-3-ylmethoxy)-benzonitrile]	0.107	0.00249	–
N#Cc1ccc(OC[C@@H]2CNCC[C@H]2c2ccccc2)cc1 [Example 26, (3S,4R)-4-(4-Phenyl-piperidin-3-ylmethoxy)-benzonitrile]	0.0733	0.0215	–
CC(C)c1cc(C(N)=O)cc(C(C)C)c1OC[C@@H]1CNCC[C@H]1c1ccccc1 [Example 27, (3S,4R)-3,5-Diisopropyl-4-(4-phenyl-piperidin-3-ylmethoxy)-benzamide]	≥ 10	5.23	–
Cc1nccnc1OC[C@@H]1CNCC[C@H]1c1ccccc1 [Example 28, (3S,4R)-2-Methyl-3-(4-phenyl-piperidin-3-ylmethoxy)-pyrazine]	6.38	2.13	–
CNC(=O)c1ccc(OC[C@@H]2CNCC[C@H]2c2ccccc2)cc1 [Example 29, (3S,4R)-N-Methyl-4-(4-phenyl-piperidin-3-ylmethoxy)-benzamide]	0.309	0.967	–
CNC(=O)c1ccc(OC[C@@H]2CNCC[C@H]2c2ccccc2)c(OC)c1 [Example 30, (3S,4R)-3-Methoxy-N-methyl-4-(4-phenyl-piperidin-3-ylmethoxy)-benzamide]	0.534	0.333	–
COCc1ncccc1OC[C@@H]1CNCC[C@H]1c1ccccc1 [Example 31, (3S,4R)-2-Methoxymethyl-3-(4-phenyl-piperidin-3-ylmethoxy)-pyridine]	0.102	0.89	–
CN(C)C(=O)c1ccc(OC[C@@H]2CNCC[C@H]2c2ccccc2)cc1 [Example 32, (3S,4R)-N,N-Dimethyl-4-(4-phenyl-piperidin-3-ylmethoxy)-benzamide]	2.94	0.861	–
NC(=O)c1ccc(OC[C@@H]2CNCC[C@H]2c2ccccc2)c(Cl)c1 [Example 33, (3S,4R)-3—CHloro-4-(4-phenyl-piperidin-3-ylmethoxy)-benzamide]	0.0086	0.0181	–
Cc1cc(C(N)=O)cc(C)c1OC[C@@H]1CNCC[C@H]1c1ccccc1 [Example 34, (3S,4R)-3,5-Dimethyl-4-(4-phenyl-piperidin-3-ylmethoxy)-benzamide]	1.44	3.5	–
COc1cc(C#N)ccc1OC[C@@H]1CNCC[C@H]1c1ccccc1 [Example 36, (3S,4R) 3-Methoxy-4-(4-phenyl-piperidin-3-ylmethoxy)-benzonitrile]	0.101	0.0137	–
NC(=O)c1cc(Cl)ccc1OC[C@@H]1CNCC[C@H]1c1ccccc1 [Example 37, (3S,4R)-5—CHloro-2-(4-phenyl-piperidin-3-ylmethoxy)-benzamide]	1.03	0.431	–
NC(=O)c1ncccc1OC[C@@H]1CNCC[C@H]1c1ccccc1 [Example 39, (3S,4R)-3-(4-Phenyl-piperidin-3-ylmethoxy)-pyridine-2-carboxylic acid amide]	0.146	0.732	–
CS(=O)(=O)c1ccccc1OC[C@@H]1CNCC[C@H]1c1ccccc1 [Example 40, (−)-(3S,4R)-3-(2-Methanesulfonyl-phenoxymethyl)-4-phenyl-piperidine]	0.751	5.68	–
COc1cccc(F)c1OC[C@@H]1CNCC[C@H]1c1ccccc1 [Example 41, (3S,4R)-3-(2-Fluoro-6-methoxy-phenoxymethyl)-4-phenyl-piperidine]	0.00388	0.00267	–
N#Cc1ccccc1OC[C@@H]1CNCC[C@H]1c1ccccc1 [Example 42, (3S, 4R)-2-(4-Phenyl-piperidin-3-ylmethoxy)-benzonitrile]	0.0017	0.626	–
CCOc1cccnc1OC[C@@H]1CNCC[C@H]1c1ccccc1 [Example 43, (3S,4R)-3-Ethoxy-2-(4-phenyl-piperidin-3-ylmethoxy)-pyridine]	0.0144	0.0897	–
COc1cccnc1OC[C@@H]1CNCC[C@H]1c1ccccc1 [Example 44, (3S,4R)-3-Methoxy-2-(4-phenyl-piperidin-3-ylmethoxy)-pyridine]	0.0333	0.158	–
COc1nccnc1OC[C@@H]1CNCC[C@H]1c1ccccc1 [Example 45, (3S,4R)-2-Methoxy-3-(4-phenyl-piperidin-3-ylmethoxy)-pyrazine]	0.0365	0.0718	–
Cc1cccc(OC[C@@H]2CNCC[C@H]2c2ccccc2)n1 [Example 46, (−)-(3S,4R)-2-Methyl-6-(4-phenyl-piperidin-3-ylmethoxy)-pyridine]	0.233	0.156	–
